Measured values as given in the Kinase Knowledgebase extract (Sharma et al. 2016).

How the values were obtained:
[1] = target: CDK2 (human) (UniProt P24941); assay: Cell-Based Assay
[2] = target: CDK2 (human) (UniProt P24941); details: A431
[3] = target: CDK2 (UniProt P24941); assay: Enzyme Assay
[4] = target: EGFR (UniProt P00533)
Chain of EGFR (P00533 whole entry, looked up): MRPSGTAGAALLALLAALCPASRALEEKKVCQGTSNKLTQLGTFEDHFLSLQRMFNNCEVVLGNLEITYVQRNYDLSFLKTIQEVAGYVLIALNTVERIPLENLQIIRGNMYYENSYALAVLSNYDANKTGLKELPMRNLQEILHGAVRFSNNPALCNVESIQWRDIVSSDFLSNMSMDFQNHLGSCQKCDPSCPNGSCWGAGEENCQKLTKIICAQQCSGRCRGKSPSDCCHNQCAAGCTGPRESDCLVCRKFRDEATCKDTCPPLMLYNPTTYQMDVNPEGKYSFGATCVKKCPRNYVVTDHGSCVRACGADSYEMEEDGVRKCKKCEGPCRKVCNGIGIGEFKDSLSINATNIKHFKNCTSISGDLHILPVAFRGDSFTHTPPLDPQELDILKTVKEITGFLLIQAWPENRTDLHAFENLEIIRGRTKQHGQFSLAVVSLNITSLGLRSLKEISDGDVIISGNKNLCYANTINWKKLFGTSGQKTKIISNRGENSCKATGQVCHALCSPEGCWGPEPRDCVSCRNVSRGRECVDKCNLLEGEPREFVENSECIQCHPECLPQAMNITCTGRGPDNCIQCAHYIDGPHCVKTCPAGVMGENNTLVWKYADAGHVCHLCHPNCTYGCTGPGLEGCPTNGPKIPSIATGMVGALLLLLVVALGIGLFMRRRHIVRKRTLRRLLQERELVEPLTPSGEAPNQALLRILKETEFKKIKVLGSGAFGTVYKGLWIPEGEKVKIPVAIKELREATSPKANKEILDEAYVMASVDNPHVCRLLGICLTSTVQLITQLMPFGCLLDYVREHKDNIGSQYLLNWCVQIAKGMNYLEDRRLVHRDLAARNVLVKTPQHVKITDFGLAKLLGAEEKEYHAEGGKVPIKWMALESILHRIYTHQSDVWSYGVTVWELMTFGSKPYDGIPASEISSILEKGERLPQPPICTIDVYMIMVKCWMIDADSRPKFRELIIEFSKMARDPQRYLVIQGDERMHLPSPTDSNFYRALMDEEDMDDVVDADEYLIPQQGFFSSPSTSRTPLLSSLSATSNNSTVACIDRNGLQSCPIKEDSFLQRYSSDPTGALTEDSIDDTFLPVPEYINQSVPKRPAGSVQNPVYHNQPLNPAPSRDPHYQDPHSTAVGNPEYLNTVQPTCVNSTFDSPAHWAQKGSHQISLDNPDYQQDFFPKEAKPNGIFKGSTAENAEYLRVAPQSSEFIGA

IC50 [3] | IC50 [4] | SMILES | GI50 ([1]; hct-116) | GI50 ([1]; snu638) | GI50 [2]
49 µM | > 100 µM | CC(C)n1ncc2c(Nc3cccc(F)c3)nc(NCCO)nc21 | 19.3 µM | 7.57 µM | 7.8 µM
> 100 µM | > 100 µM | Cn1ncc2c(NCc3ccccc3)nc(NCCO)nc21 | > 100 µM | 37.1 µM | 42.7 µM
28.2 µM | > 100 µM | CC(C)n1ncc2c(Nc3cccc(Br)c3)nc(NCCO)nc21 | 6.46 µM | 4.28 µM | 2.19 µM
> 100 µM | > 100 µM | COc1cccc(Nc2nc(NCCO)nc3c2cnn3C)c1 | 90.4 µM | 21.7 µM | 19.1 µM
3.8 µM | 36.3 µM | OCCN(CCO)c1nc(Nc2cccc(Br)c2)c2cn[nH]c2n1 | > 100 µM | 38.9 µM | > 100 µM
0.9 µM | > 100 µM | OCCN(CCO)c1nc(Nc2cccc(F)c2)c2cn[nH]c2n1 | > 100 µM | > 100 µM | 54.3 µM
> 100 µM | 47.9 µM | Cn1ncc2c(Nc3cccc(Br)c3)nc(NCCO)nc21 | > 100 µM | 18.2 µM | 31.9 µM
10.2 µM | > 100 µM | COc1cccc(Nc2nc(N(CCO)CCO)nc3[nH]ncc23)c1 | > 100 µM | > 100 µM | > 100 µM
> 100 µM | > 100 µM | CC(C)n1ncc2c(NCc3ccc(N)cc3)nc(NCCO)nc21 | > 100 µM | 38.2 µM | 55.3 µM
29.5 µM | 93.3 µM | OCCNc1nc(NCc2ccccc2)c2cn[nH]c2n1 | 4.5 µM | 20.8 µM | 26.6 µM
36.3 µM | 29.5 µM | Cn1ncc2c(Nc3cccc(F)c3)nc(N(CCO)CCO)nc21 | 8.89 µM | 2.56 µM | 3.94 µM

The next lines start with the compound.

SMILES | IC50 [3] | IC50 [4] | GI50 ([1]; hct-116) | GI50 ([1]; snu638) | GI50 [2]
Cn1ncc2c(NCc3ccc(N)cc3)nc(NCCO)nc21 | > 100 µM | > 100 µM | > 100 µM | 96.8 µM | 58.9 µM
CC(C)n1ncc2c(NCc3ccc([N+](=O)[O-])cc3)nc(NCCO)nc21 | 46.8 µM | > 100 µM | 77.7 µM | 23.4 µM | 32 µM
OCCNc1nc(Nc2cccc(Br)c2)c2cn[nH]c2n1 | 8.1 µM | > 100 µM | > 100 µM | 69.2 µM | > 100 µM
Cn1ncc2c(NCc3ccc([N+](=O)[O-])cc3)nc(NCCO)nc21 | 17.8 µM | > 100 µM | 48.5 µM | 24.9 µM | 23.4 µM
COc1cccc(Nc2nc(N(CCO)CCO)nc3c2cnn3C)c1 | 57.5 µM | > 100 µM | 17.2 µM | 10.5 µM | 12.9 µM
Cn1ncc2c(Nc3cccc(F)c3)nc(NCCO)nc21 | 21.4 µM | > 100 µM | 28.2 µM | 15.8 µM | 16.3 µM
COc1cccc2c1C(=O)c1c(O)c3c(c(O)c1C2=O)C[C@@](O)(C(=O)CO)CC3O[C@H]1C[C@H](N)[C@H](O)[C@H](C)O1 (some centres not stated) |  |  | 0.13 µM |  | 0.18 µM
COc1cccc(Nc2nc(NCCO)nc3[nH]ncc23)c1 | 3.1 µM | > 100 µM | 38.2 µM | 17.1 µM | > 100 µM
COc1cccc(Nc2nc(NCCO)nc3c2cnn3C(C)C)c1 | > 100 µM | > 100 µM | 21.4 µM | 7.55 µM | 13.1 µM
OCCN(CCO)c1nc(NCc2ccccc2)c2cn[nH]c2n1 | 37.2 µM | 55 µM | 93.6 µM | 29 µM | > 100 µM
CC(C)n1ncc2c(NCc3ccccc3)nc(NCCO)nc21 | > 100 µM | > 100 µM | 57.6 µM | 25.2 µM | 35.6 µM
CC(C)n1ncc2c(Nc3cccc(Br)c3)nc(N(CCO)CCO)nc21 | 29.5 µM | > 100 µM | 5.06 µM | 4.1 µM | 2.58 µM
OCCNc1nc(Nc2cccc(F)c2)c2cn[nH]c2n1 | 0.5 µM | 66.1 µM | > 100 µM | > 100 µM | 28.9 µM
COc1cccc(Nc2nc(N(CCO)CCO)nc3c2cnn3C(C)C)c1 | 66 µM | > 100 µM | 12.6 µM | 7.92 µM | 4.43 µM
Cn1ncc2c(Nc3cccc(Br)c3)nc(N(CCO)CCO)nc21 | > 100 µM | > 100 µM | 16.6 µM | 6.2 µM | 2.94 µM
Cn1ncc2c(NCc3ccccc3)nc(N(CCO)CCO)nc21 | > 100 µM | 77.6 µM | 53.4 µM | 25.3 µM | 24.3 µM
CC(C)n1ncc2c(NCc3ccccc3)nc(N(CCO)CCO)nc21 | > 100 µM | > 100 µM | 47.7 µM | 26.1 µM | 21.9 µM
CC(C)n1ncc2c(Nc3cccc(F)c3)nc(N(CCO)CCO)nc21 | 47.9 µM | > 100 µM | 10.9 µM | 7.95 µM | 6.25 µM
